Data as given in ChEMBL document CHEMBL1139280, “Potent inhibitors of HCV-NS3 protease derived from boronic acids” (Bioorg Med Chem Lett, 2009).

What was measured:
[1] = Inhibition of HCV NS3 protease assessed as hydrolysis of chromogenic 4-phenylazophenyl ester from peptide fragment Ac-DTEDVVP(Nva)-O-4-PAP by spectrophotometry; parameters: species or system Hepacivirus hominis
Hepatitis C virus = experiment: Inhibition of HCV subgenomic RNAs replication in human hepatoma cells; assay type: functional, Hepacivirus hominis

Structure (SMILES) | Ki [1] | EC90 (Hepatitis C virus)
CN(C[C@@H](NC(=O)N[C@H](C(=O)N1C[C@H]2[C@@H]([C@H]1C(=O)N[C@@H](CC1CCC1)B(O)O)C2(C)C)C(C)(C)C)C(C)(C)C)S(C)(=O)=O | 0.2 nM | > 5000 nM
CN(C[C@@H](NC(=O)N[C@H](C(=O)N1C[C@H]2[C@@H]([C@H]1C(=O)N[C@@H](CC1CCC1)B1O[C@@H]3C[C@@H]4C[C@@H](C4(C)C)[C@]3(C)O1)C2(C)C)C(C)(C)C)C(C)(C)C)S(C)(=O)=O | 0.5 nM | > 5000 nM
CC[C@H](NC(=O)[C@@H]1[C@@H]2[C@H](CN1C(=O)[C@@H](NC(=O)NC(C)(C)C)C(C)(C)C)C2(C)C)B1O[C@@H]2C[C@@H]3C[C@@H](C3(C)C)[C@]2(C)O1 | 500 nM | > 5000 nM
CC[C@H](NC(=O)[C@@H]1[C@@H]2[C@H](CN1C(=O)[C@@H](NC(=O)NC(C)(C)C)C(C)(C)C)C2(C)C)B(O)O | 10 nM | > 5000 nM
CC(C)(C)NC(=O)N[C@H](C(=O)N1C[C@H]2[C@@H]([C@H]1C(=O)NC(CC1CCC1)C(=O)C(N)=O)C2(C)C)C(C)(C)C (stereo partly drawn) [BOCEPREVIR] | 14 nM | 350 nM
CC(C)(C)NC(=O)N[C@H](C(=O)N1C[C@H]2[C@@H](C1C(=O)N[C@@H](CC1CCC1)B1O[C@@H]3C[C@@H]4C[C@@H](C4(C)C)[C@]3(C)O1)C2(C)C)C(C)(C)C (stereo partly drawn) | 10 nM | > 5000 nM
CC[C@H](NC(=O)[C@@H]1[C@@H]2[C@H](CN1C(=O)[C@@H](NC(=O)N[C@H](CN(C)S(C)(=O)=O)C(C)(C)C)C(C)(C)C)C2(C)C)B(O)O | 52 nM | > 5000 nM
CC[C@H](NC(=O)C1[C@@H]2[C@H](CN1C(=O)[C@@H](NC(=O)NC(C)(C)C)C(C)(C)C)C2(C)C)B1O[C@@H]2C[C@@H]3C[C@@H](C3(C)C)[C@]2(C)O1 (stereo partly drawn) | 380 nM | > 5000 nM
CC[C@H](NC(=O)[C@@H]1[C@@H]2[C@H](CN1C(=O)[C@@H](NC(=O)N[C@H](CN(C)S(C)(=O)=O)C(C)(C)C)C(C)(C)C)C2(C)C)B1O[C@@H]2C[C@@H]3C[C@@H](C3(C)C)[C@]2(C)O1 | 34 nM | > 5000 nM
